For orientation: TGI means the concentration at which net growth stops.

Test [1] has as its system SK-MEL-5 (Melanoma). Nature of the test: NCI human tumor cell line growth inhibition, SK-MEL-5. To be noted: Melanoma SK-MEL-5, 48 hours. It is filed as cell-based. The protocol: (§1) The only difference is historical usage.
(§2) Percent Growths are calculated for each dose.
(§3) This is the "baseline count", or "Tzero reading".

Test [2] has as its system SF-295 (CNS). The experiment in a line: NCI human tumor cell line growth inhibition, SF-295. It is filed as cell-based. The following applies: CNS SF-295, 48 hours. The protocol: as §1, §2, §3
Test [3] has as its system PS-388 (Mouse Leukemia). The experiment in a line: P-388 mouse leukemia cell growth inhibition. Type of test: cell-based. The following applies: Mouse Leukemia PS-388. As to the method: as §1, §2, §3
The test system of test [4] is A498 (Renal). To be noted: Renal A498, 48 hours.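 Also: NCI protocol, compound given at five doses from 0.01 to 100 µg/ml, percent growth versus untreated controls relative to cell count at time zero, regression on log dose.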
Text: The following measures are used to express drug activity by giving the drug dose which reduces cell growth to a specified percentage of growth:
There is no mathematical difference between ED50 and GI50, which are both calculated using the same formula. The only difference is historical usage.
TGI, (Total Growth Inhibition), is the drug dose needed to yield zero percent growth, i.e., just as many cells at the end of the experiment as were present in the beginning. Whether just as many cells were killed as were produced (steady state), or no growth occurred (total inhibition), cannot be distinguished.
Each drug is tested at five (5) doses: 100-10-1-0.1-0.01 μg/ml. Percent Growths are calculated for each dose. […] The log of the dose is used during the regression computation.
At the start of an experiment, cells from the in vitro cell cultures are inoculated into the appropriate tubes or microtiter plates. One set of control tubes/plates is immediately counted to determine the number of cells at the start of the experiment. This is the "baseline count", or "Tzero reading". At the end of the experiment (48 hours later) a second set of control tubes/plates is analyzed to determine the "Control Growth" value. The growth (or death) of cells relative to the initial quantity of cells is used to define the "Percent of Growth".
The test system of test [5] is KM20L2 (Colon). The experiment in a line: NCI human tumor cell line growth inhibition, KM20L2. The following applies: Colon KM20L2, 48 hours. Type of test: cell-based. As to the method:
as §1, §2, §3

Test [6] has as its system OVCAR-3 (Ovarian). The experiment in a line: NCI human tumor cell line growth inhibition, OVCAR-3. Type of test: cell-based. The following applies: Ovarian OVCAR-3, 48 hours. The protocol:
as §1, §2, §3

The test system of test [7] is NCI-H460 (Lung-NSC). The experiment in a line: NCI human tumor cell line growth inhibition, NCI-H460. It is filed as cell-based. To be noted: Lung-NSC NCI-H460, 48 hours. As to the method: as §1, §2, §3

Take “L-Dolavalyl-L-Valyl-N-Methyl-(S,S,R)-Dolaisoleuinyl-(S,R,R)-Dolaproinyl-L- (p-Chloro)phenylalanine N-2-(6-Chloro)benzothiazole Amide [9l]”: the GI-50 in test [1] is 0.0000061 µg/mL; in test [2] it was 0.000036 µg/mL; in test [4] it was 0.000059 µg/mL; in test [5] it was 0.000031 µg/mL; in test [6] it was 0.000018 µg/mL; in test [7] it was 0.000043 µg/mL. For the same substance, the TGI was above 0.1 ng/mL in test [1]; above 0.1 ng/mL in test [2]; above 0.1 ng/mL in test [4]; 0.096 ng/mL in test [5]; 0.071 ng/mL in test [6]; above 0.1 ng/mL in test [7]. In test [3], this substance came in with an ED-50 of 0.000458 µg/mL.
On to “L-Dolavalyl-L-Valyl-N-Methyl-(S,S,R)-Dolaisoleuinyl-(S,R,R)-Dolaproinyl-L- Isoleucine N-3-Quinoline Amide [9s]”, for which the GI-50 in test [1] was 0.0000039 µg/mL; in test [2], 0.000028 µg/mL; in test [4], 0.000065 µg/mL; in test [5] it was 0.00003 µg/mL; in test [6] it was 0.000018 µg/mL; in test [7], 0.000027 µg/mL. Moreover, the LC-50 in test [1], in test [2], in test [4], in test [5], in test [6] and in test [7] was above 0.0001 µg/mL throughout. Further, the concentration for total growth inhibition (TGI) is above 0.1 ng/mL in test [1]; above 0.1 ng/mL in test [2]; above 0.1 ng/mL in test [4]; above 0.1 ng/mL in test [5]; 0.079 ng/mL in test [6]; above 0.1 ng/mL in test [7]. The substance also showed an ED-50 in test [3] of 0.00352 µg/mL.
“L-Dolavalyl-L-Valyl-N-Methyl-(S,S,R)-Dolaisoleuinyl-(S,R,R)-Dolaproinyl-L- Methionine N-1-(2-p-Chlorophenylethyl) Amide [9i]”: the GI-50 in test [1] was 0.0000012 µg/mL; in test [2] it was 0.000026 µg/mL; in test [4], 0.000067 µg/mL; in test [5], 0.0000048 µg/mL; in test [6], 0.000017 µg/mL; in test [7] it was 0.0000032 µg/mL. In addition, the LC-50 in test [1], in test [2], in test [4], in test [5], in test [6] and in test [7] was above 0.001 µg/mL each time. For the same substance, the concentration for total growth inhibition (TGI) is 0.43 ng/mL in test [1]; above 1 ng/mL in test [2]; above 1 ng/mL in test [4]; 0.13 ng/mL in test [5]; 0.072 ng/mL in test [6]; 0.011 ng/mL in test [7]. This substance had an ED-50 in test [3] of 0.000111 µg/mL.
Take “L-Dolavalyl-L-Valyl-N-Methyl-(S,S,R)-Dolaisoleuinyl-(S,R,R)-Dolaproinyl-L- Methionine N-2,5-Dichlorophenyl Amide [9g]”: the GI-50 in test [1] was 0.000062 µg/mL; in test [2], 0.00013 µg/mL; in test [4] it was 0.00036 µg/mL; in test [5], 0.00015 µg/mL; in test [6], 0.00014 µg/mL; in test [7], 0.00017 µg/mL. Also, the LC-50 in test [1], in test [2], in test [4], in test [5], in test [6] and in test [7] was above 0.001 µg/mL each time. Besides, the TGI in test [1] was 0.65 ng/mL; in test [2], above 1 ng/mL; in test [4], above 1 ng/mL; in test [5], 0.61 ng/mL; in test [6], 0.51 ng/mL; in test [7], 0.66 ng/mL. Moreover, in test [3], the ED-50 came out at 0.000125 µg/mL.
As for “L-Dolavalyl-L-Valyl-N-Methyl-(S,S,R)-Dolaisoleuinyl-(S,R,R)-Dolaproinyl-L- Methionine N-2-Benzothiazole Amide [9m]”, the GI-50 came to 0.0000024 µg/mL in test [1]; 0.000022 µg/mL in test [2]; 0.000016 µg/mL in test [4]; 0.0000041 µg/mL in test [5]; 0.0000016 µg/mL in test [6]; 0.000011 µg/mL in test [7]. The total growth inhibition concentration (TGI) was above 0.1 ng/mL in test [1]; above 0.1 ng/mL in test [2]; above 0.1 ng/mL in test [4]; above 0.1 ng/mL in test [5]; 0.011 ng/mL in test [6]; 0.08 ng/mL in test [7]. This substance also had an ED-50 in test [3] of 0.000243 µg/mL.
On to “L-Dolavalyl-L-Valyl-N-Methyl-(S,S,R)-Dolaisoleuinyl-(S,R,R)-Dolaproinyl-L- Methionine N-2-Chlorophenyl Amide [9b]”, for which the GI-50 in test [1] worked out at 0.00002 µg/mL; in test [2], 0.000036 µg/mL; in test [4], 0.000073 µg/mL; in test [5], 0.000034 µg/mL; in test [6], 0.000028 µg/mL; in test [7] it was 0.000031 µg/mL. Further, the LC-50 in test [1], in test [2], in test [4], in test [5], in test [6] and in test [7] was above 0.001 µg/mL each time. Moreover, the total growth inhibition concentration (TGI) was above 1 ng/mL in test [1]; above 1 ng/mL in test [2]; above 1 ng/mL in test [4]; 0.18 ng/mL in test [5]; 0.091 ng/mL in test [6]; 0.11 ng/mL in test [7]. Moreover, in test [3], the ED-50 worked out at 0.000211 µg/mL.
Take “L-Dolavalyl-L-Valyl-N-Methyl-(S,S,R)-Dolaisoleuinyl-(S,R,R)-Dolaproinyl-L- Methionine N-2-Pyridyl Amide [9o]”: the GI-50 in test [1] worked out at 0.000016 µg/mL; in test [2], 0.00016 µg/mL; in test [4], 0.00023 µg/mL; in test [5] it was 0.000033 µg/mL; in test [6], 0.000032 µg/mL; in test [7] it was 0.00012 µg/mL. For the same substance, the LC-50 in test [1], in test [2], in test [4], in test [5], in test [6] and in test [7] was above 0.001 µg/mL in each case. The TGI in test [1] is 0.6 ng/mL; in test [2], above 1 ng/mL; in test [4] it was above 1 ng/mL; in test [5], 0.31 ng/mL; in test [6], 0.22 ng/mL; in test [7] it was 0.59 ng/mL. The same substance showed an ED-50 in test [3] of 0.000262 µg/mL.
Take “L-Dolavalyl-L-Valyl-N-Methyl-(S,S,R)-Dolaisoleuinyl-(S,R,R)-Dolaproinyl-L- Methionine N-3-Chlorophenyl Amide [9c]”: the GI-50 in test [1] amounted to 0.0000013 µg/mL; in test [2] it was 0.000031 µg/mL; in test [4], 0.000084 µg/mL; in test [5] it was 0.000023 µg/mL; in test [6], 0.000011 µg/mL; in test [7], 0.000025 µg/mL. In addition, the LC-50 in test [1], in test [2], in test [4], in test [5], in test [6] and in test [7] was above 0.001 µg/mL in each case. Also, the TGI is 0.26 ng/mL in test [1]; above 1 ng/mL in test [2]; above 1 ng/mL in test [4]; 0.1 ng/mL in test [5]; 0.1 ng/mL in test [6]; 0.11 ng/mL in test [7]. Further, the ED-50 in test [3] is 0.00000264 µg/mL.
On to “L-Dolavalyl-L-Valyl-N-Methyl-(S,S,R)-Dolaisoleuinyl-(S,R,R)-Dolaproinyl-L- Methionine N-3-Quinoline Amide [9p]”, for which the GI-50 was found to be 0.00000038 µg/mL in test [1]; 0.000004 µg/mL in test [2]; 0.000008 µg/mL in test [4]; 0.00000065 µg/mL in test [5]; 0.00000032 µg/mL in test [6]; 0.0000031 µg/mL in test [7]. The LC-50 in test [1], in test [2], in test [4], in test [5], in test [6] and in test [7] was above 0.0001 µg/mL in each case. The TGI in test [1] is above 0.1 ng/mL; in test [2], above 0.1 ng/mL; in test [4], above 0.1 ng/mL; in test [5], above 0.1 ng/mL; in test [6], 0.01 ng/mL; in test [7] it was 0.017 ng/mL. Moreover, the ED-50 in test [3] came out at 0.000356 µg/mL.

(Values after patent US5663149A, “Human cancer inhibitory pentapeptide heterocyclic and halophenyl amides” (priority 1994, dated 1997).)
